# From ChEMBL document CHEMBL1201862, “PubChem BioAssay data set” (2004)
#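 Results reflect a 48-hour exposure of cells in 96-well plates to compound at five concentrations. Abbreviation: GI50, concentration required for 50% inhibition of growth.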 Activity calls are given as the source filed them. Cut-off read from the data, not from the text of the source: active = GI50 up to about 1.1 µM and inactive = higher.
# Experiments:
# Assay in all cases: NCI-60 cell line screen, 48 h
# A549 = tested on: A549
# UO-31 = tested on: UO-31
# OVCAR-8 = tested on: OVCAR-8
# TK-10 = tested on: TK-10
# PC-3 = tested on: PC-3
# Hs-578T = tested on: Hs-578T
# HCT-116 = tested on: HCT-116
# M14 = tested on: M14
# ACHN = tested on: ACHN
# HCC 2998 = tested on: HCC 2998
# RXF 393 = tested on: RXF 393
# SF-295 = tested on: SF-295
# CCRF-CEM = tested on: CCRF-CEM
# UACC-257 = tested on: UACC-257
# HOP-92 = tested on: HOP-92
# MOLT-4 = tested on: MOLT-4
# MDA-MB-435 = tested on: MDA-MB-435
# Malme-3M = tested on: Malme-3M
# BT-549 = tested on: BT-549
# HL-60 = tested on: HL-60
SMILES,GI50 (A549),GI50 (UO-31),GI50 (OVCAR-8),GI50 (TK-10),GI50 (PC-3),GI50 (Hs-578T),GI50 (HCT-116),GI50 (M14),GI50 (ACHN),GI50 (HCC 2998),GI50 (RXF 393),GI50 (SF-295),GI50 (CCRF-CEM),GI50 (UACC-257),GI50 (HOP-92),GI50 (MOLT-4),GI50 (MDA-MB-435),GI50 (Malme-3M),GI50 (BT-549),GI50 (HL-60)
CCOC(=O)C(COS(C)(=O)=O)(COS(C)(=O)=O)C(=O)OCC,> 100 µM (inactive),> 100 µM (inactive),> 100 µM (inactive),> 100 µM (inactive),> 100 µM (inactive),> 100 µM (inactive),> 100 µM (inactive),> 100 µM (inactive),> 100 µM (inactive),> 100 µM (inactive),> 100 µM (inactive),> 100 µM (inactive),> 100 µM (inactive),> 100 µM (inactive),> 100 µM (inactive),> 100 µM (inactive),> 100 µM (inactive),,,
CSc1ccc2c(cc1=O)[C@@H](NC(C)=O)CCc1cc(O)c(O)c(O)c1-2,20.1 µM (inactive),21.6 µM (inactive),19.1 µM (inactive),18.8 µM (inactive),84.3 µM (inactive),,30.6 µM (inactive),18.7 µM (inactive),22.3 µM (inactive),23 µM (inactive),72.4 µM (inactive),13.3 µM (inactive),4.98 µM (inactive),37.2 µM (inactive),23.7 µM (inactive),13.2 µM (inactive),10.4 µM (inactive),57 µM (inactive),29.6 µM (inactive),37.8 µM (inactive)
O=C(/C=C/c1ccc2c(c1)OCO2)CC(=O)/C=C/c1ccc2c(c1)OCO2,> 100 µM (inactive),> 100 µM (inactive),,> 100 µM (inactive),86.3 µM (inactive),57.9 µM (inactive),37.5 µM (inactive),> 100 µM (inactive),84.3 µM (inactive),> 100 µM (inactive),87.7 µM (inactive),> 100 µM (inactive),35.6 µM (inactive),,,> 100 µM (inactive),> 100 µM (inactive),> 100 µM (inactive),,41.7 µM (inactive)
N=C(Nc1nc(-c2ccccn2)cc2ccccc12)c1ccccn1,0.0733 µM (active),0.0918 µM (active),< 0.0179 µM (active),0.249 µM (active),< 0.0129 µM (active),1.61 µM (inactive),0.01 µM (active),0.0229 µM (active),< 0.0145 µM (active),0.117 µM (active),0.0168 µM (active),0.326 µM (active),0.01 µM (active),< 0.0172 µM (active),0.0233 µM (active),0.01 µM (active),0.12 µM (active),0.157 µM (active),,0.01 µM (active)
COc1ccc2[nH]c3c(C)c4cc[n+](C)cc4c(C)c3c2c1,,38.5 µM (inactive),0.169 µM (active),,4.55 µM (inactive),0.125 µM (active),1.39 µM (inactive),,7.24 µM (inactive),1.92 µM (inactive),0.798 µM (active),0.173 µM (active),1.14 µM (inactive),8.41 µM (inactive),2.27 µM (inactive),,,0.733 µM (active),1.57 µM (inactive),14.9 µM (inactive)
COc1cccc(/C=N/n2c(-c3ccccc3)n[nH]c2=O)c1,91.2 µM (inactive),> 100 µM (inactive),29.8 µM (inactive),,> 100 µM (inactive),22.7 µM (inactive),28.2 µM (inactive),> 100 µM (inactive),> 100 µM (inactive),> 100 µM (inactive),,21.2 µM (inactive),> 100 µM (inactive),42.6 µM (inactive),,> 100 µM (inactive),> 100 µM (inactive),> 100 µM (inactive),26.9 µM (inactive),
CC1(C)OC2OC(COC(=O)C=[N+]=[N-])C3OC(C)(C)OC3C2O1 (stereo not given),,> 100 µM (inactive),,> 100 µM (inactive),> 100 µM (inactive),,> 100 µM (inactive),,> 100 µM (inactive),> 100 µM (inactive),> 100 µM (inactive),> 100 µM (inactive),> 100 µM (inactive),> 100 µM (inactive),> 100 µM (inactive),> 10 µM (inactive),> 100 µM (inactive),> 100 µM (inactive),> 100 µM (inactive),> 100 µM (inactive)
CCN(CC)Cc1ccc(C(=S)Nc2ccc(Cl)cc2)s1,11.2 µM (inactive),11.4 µM (inactive),3.75 µM (inactive),,13.2 µM (inactive),10.4 µM (inactive),10.5 µM (inactive),3.64 µM (inactive),14.2 µM (inactive),12.6 µM (inactive),,9.91 µM (inactive),11.9 µM (inactive),4.81 µM (inactive),,4.54 µM (inactive),9.91 µM (inactive),,5.18 µM (inactive),2.75 µM (inactive)
Cc1cc(-c2ccc(C(=O)C(Cl)(Cl)Cl)[nH]2)on1,33.5 µM (inactive),22.3 µM (inactive),32.7 µM (inactive),27.4 µM (inactive),29.9 µM (inactive),,18 µM (inactive),35.5 µM (inactive),27.9 µM (inactive),,17.1 µM (inactive),33.3 µM (inactive),27.2 µM (inactive),42.1 µM (inactive),51.5 µM (inactive),2.95 µM (inactive),20.5 µM (inactive),73.1 µM (inactive),33.3 µM (inactive),21.1 µM (inactive)
CNc1cc(Cl)ccc1C(=O)N1CCC[C@H]1CO,> 100 µM (inactive),> 100 µM (inactive),> 100 µM (inactive),> 100 µM (inactive),> 100 µM (inactive),> 100 µM (inactive),> 100 µM (inactive),> 100 µM (inactive),> 100 µM (inactive),,> 100 µM (inactive),> 100 µM (inactive),> 100 µM (inactive),> 100 µM (inactive),,> 100 µM (inactive),> 100 µM (inactive),> 100 µM (inactive),> 100 µM (inactive),81.7 µM (inactive)
N#CC(C#N)=C1/C(=C/C=C/C=C/C=C/c2ccc(N3CCCCC3)s2)S(=O)(=O)c2ccccc21,> 100 µM (inactive),,67.3 µM (inactive),81.3 µM (inactive),> 100 µM (inactive),,> 100 µM (inactive),> 100 µM (inactive),> 100 µM (inactive),> 100 µM (inactive),> 100 µM (inactive),> 100 µM (inactive),71.6 µM (inactive),> 100 µM (inactive),95.9 µM (inactive),14.9 µM (inactive),> 100 µM (inactive),,> 100 µM (inactive),> 100 µM (inactive)
COc1ccc2c(c1)[n+]([O-])c(C#N)c(N1CCN(c3ccc([N+](=O)[O-])cc3)CC1)[n+]2[O-],3.08 µM (inactive),< 0.01 µM (active),2.09 µM (inactive),9.68 µM (inactive),3.34 µM (inactive),2.55 µM (inactive),3.66 µM (inactive),4.52 µM (inactive),2.7 µM (inactive),> 100 µM (inactive),6.89 µM (inactive),3.77 µM (inactive),1.92 µM (inactive),4.42 µM (inactive),,,5.13 µM (inactive),2.64 µM (inactive),3.69 µM (inactive),5.42 µM (inactive)
CC(=O)OCCN(C1=NCCN1)/[N+](C=c1ccc(=C=[N-])cc1)=C/c1ccc(C#N)cc1,> 100 µM (inactive),> 100 µM (inactive),> 100 µM (inactive),> 100 µM (inactive),> 100 µM (inactive),> 100 µM (inactive),> 100 µM (inactive),> 100 µM (inactive),> 100 µM (inactive),> 100 µM (inactive),> 100 µM (inactive),> 100 µM (inactive),> 100 µM (inactive),> 100 µM (inactive),,> 100 µM (inactive),> 100 µM (inactive),> 100 µM (inactive),> 100 µM (inactive),
COc1cc(C(=O)Nc2cc(C(N)=O)cc(OC)c2OC)cc(NC(=O)/C=C/c2ccccc2)c1OC,> 100 µM (inactive),> 100 µM (inactive),> 100 µM (inactive),> 100 µM (inactive),> 100 µM (inactive),,,,> 100 µM (inactive),,> 100 µM (inactive),2.67 µM (inactive),55.5 µM (inactive),> 100 µM (inactive),5.11 µM (inactive),52.4 µM (inactive),> 100 µM (inactive),2.63 µM (inactive),> 100 µM (inactive),96.4 µM (inactive)
CC1=[N+]([O-])C(C)(C)N(N=O)C1(C)C,> 10 µM (inactive),> 10 µM (inactive),> 10 µM (inactive),> 10 µM (inactive),> 10 µM (inactive),,> 10 µM (inactive),> 10 µM (inactive),> 10 µM (inactive),> 10 µM (inactive),> 10 µM (inactive),> 10 µM (inactive),> 10 µM (inactive),> 10 µM (inactive),> 10 µM (inactive),> 10 µM (inactive),> 10 µM (inactive),> 10 µM (inactive),> 10 µM (inactive),> 10 µM (inactive)
c1ccc(/N=C2\C(=N/c3ccccc3)N(C3CCCCC3)/C(=N\C3CCCCC3)N2c2ccccc2)cc1,> 100 µM (inactive),> 100 µM (inactive),> 100 µM (inactive),> 100 µM (inactive),> 100 µM (inactive),> 100 µM (inactive),> 100 µM (inactive),> 100 µM (inactive),> 100 µM (inactive),> 100 µM (inactive),> 100 µM (inactive),,,> 100 µM (inactive),> 100 µM (inactive),> 100 µM (inactive),,> 100 µM (inactive),> 100 µM (inactive),> 100 µM (inactive)
